Inhibition data for 37 compounds are collected here from patent US4623662A, “Antiatherosclerotic ureas and thioureas” (American Cyanamid Company, priority 1985, dated 1986).

The first test deals with T1, fatty acyl CoA: cholesterol acyl transferase (ACAT) (Rattus norvegicus, UniProt O70536).
T1 construct: The supernatant, containing the microsomal fraction, served as the source of the cholesterol-esterifying enzyme; from tissue; host or cells: rat adrenals, supernatant of 1,000 x g centrifugation containing the microsomal fraction
T1 sequence (O70536 1-545): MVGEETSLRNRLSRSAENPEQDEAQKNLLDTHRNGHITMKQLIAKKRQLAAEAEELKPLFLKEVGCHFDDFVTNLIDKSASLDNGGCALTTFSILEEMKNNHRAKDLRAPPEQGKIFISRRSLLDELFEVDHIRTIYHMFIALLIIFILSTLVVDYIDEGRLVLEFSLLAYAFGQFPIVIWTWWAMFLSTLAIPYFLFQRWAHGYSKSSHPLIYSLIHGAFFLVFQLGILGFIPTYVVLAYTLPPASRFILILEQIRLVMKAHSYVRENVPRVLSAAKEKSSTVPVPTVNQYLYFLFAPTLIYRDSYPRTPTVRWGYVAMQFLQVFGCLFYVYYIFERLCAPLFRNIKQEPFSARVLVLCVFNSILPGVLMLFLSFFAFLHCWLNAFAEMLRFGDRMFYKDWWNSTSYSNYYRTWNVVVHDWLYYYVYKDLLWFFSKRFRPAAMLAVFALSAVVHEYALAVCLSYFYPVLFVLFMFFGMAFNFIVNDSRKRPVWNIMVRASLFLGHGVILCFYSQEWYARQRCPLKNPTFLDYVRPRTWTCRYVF
Description: Inhibition of fatty acyl CoA:cholesterol acyl transferase (ACAT), rat adrenal enzyme. The class given is biochemical.
Details: not given
The method, then:
The compounds of the present invention were assayed for two types of biological activity related to their potential use as antiatherosclerotic agents. Compounds were tested in vitro for the ability to inhibit the enzyme fatty acyl CoA: cholesterol acyl transferase (ACAT) and in vivo for serum hypolipidemic activity as meausred by the ability to inhibit lipid absorption in rats.
The compounds were tested for their ability to inhibit ACAT according to the following procedure: rat adrenals were homogenized in 0.2M monobasic potassium phosphate buffer, pH 7.4, and centrifuged at 1,000 times gravity for 15 minutes at 5° C. The supernatant, containing the microsomal fraction, served as the source of the cholesterol-esterifying enzyme, fatty acyl CoA:cholesterol acyl transferase (ACAT). A mixture comprising 50 parts of adrenal supernatant, 10 parts of bovine serum albumin (50 mg/ml), 3 parts of test compound (final concentration 5.2 μg/ml), and 500 parts of buffer was preincubated at 37° C. for 10 minutes. After treatment with 20 parts of oleoyl CoA (^14 C-0.4 μCi), the mixture was incubated at 37° C. for 10 minutes. A control mixture, omitting the test compound, was prepared and treated in the same manner. The lipids from the incubation mixture was extracted into an organic solvent and separated by thin-layer chromatography. The cholesteryl ester fraction was counted in a scintillation counter. This procedure is a modification of that described by Hashimoto, et al., Life Scie., 12 (Part II), 1-12 (1973).
Compounds which produced statistically significant inhibition of the ACAT enzyme are considered to be active.
In addition to the above described test and the results given in terms of percent inhibition, various compounds of this invention were tested by the same procedure at several concentrations. The results of this test are given in Table II in terms of IC50 (μM), that concentration which produced 50% inhibition of the ACAT enzyme.
In turn, `CCCCCCCN(Cc1ccc(CCCC)cc1)C(=O)Nc1cccc(C(F)(F)F)c1` [1-(n-Heptyl)-1-[4-(n-butyl)benzyl]-3-(3-trifluoromethylphenyl)urea] yielded an inhibition at 5.2 µg/mL of 90%.

In turn, `CCCCc1ccc(CN(CCCCCCOS(C)(=O)=O)C(=O)Nc2ccc(Cl)cc2C)cc1` [1-[(4-Butylphenyl)methyl]-3-(4-chloro-2-methylphenyl)-1-[6-[(methylsulfonyl)oxy]hexyl]urea] yielded an inhibition at 5.2 µg/mL of 90%.

`CCCCc1ccc(CN(CCCCCCOS(C)(=O)=O)C(=O)Nc2c(Cl)cc(Cl)cc2Cl)cc1` [1-[(4-Butylphenyl)methyl]-1-[6-(methylsulfonyloxy)-hexyl]-3-(2,4,6-trichlorophenyl)urea] yielded an inhibition at 5.2 µg/mL of 90%. Same read-out and setting: the result for `CC(C)(C)CCN(Cc1ccc(Cl)cc1)C(=O)Nc1ccc(F)cc1F` [1-(3,3-Dimethylbutyl)-1-(4-chlorobenzyl)-3-(2,4-difluorophenyl)urea] reads 90%; that for `CCCCCCCN(Cc1ccc(CCCC)cc1)C(=O)Nc1c(F)cc(F)cc1F` [1-[(4-butylphenyl)methyl]-1-(n-heptyl)-3-[2,4,6-trifluorophenyl]urea], 90%.

Still in this test, the particulars now being: rat adrenal ACAT; final concentration 5.2 μg/ml; read-out: % Inhibition.
With `CCCCN(Cc1ccccc1F)C(=O)Nc1ccc(C)cc1C` [1-( -n-Butyl)-1-(2-fluorobenzyl)-3-(2,4-dimethylphenyl)urea], the inhibition at 5.2 µg/mL is 83.6%. Still for that read-out and setting: the figure for `CCCCN(Cc1ccccc1)C(=O)Nc1cccc(Cl)c1OC` [1-Benzyl-1-( -n-butyl)-3-(3-chloro-2-methoxyphenyl)urea] is 84.5%; for `CCCCc1ccc(CN(CCOCCO)C(=O)Nc2ccc(C)cc2C)cc1` [1-[(4-Butylphenyl)methyl]-3-(2,4-dimethylphenyl)-1-[2-(2-hydroxyethoxy)ethyl]urea] it is 74.5%; for `COc1cccc(C(Cc2ccccc2)N(Cc2ccccc2)C(=O)Nc2cccc(C(F)(F)F)c2)c1` (stereo not shown) [1-Benzyl-1-[1-(3-methoxyphenyl)-2-phenylethyl]-3-(3-trifluoromethylphenyl)urea] it is 88.1%. Take `CCOc1ccc(CCN(Cc2ccc(C)cc2C)C(=O)Nc2ccc(C)cc2C)cc1` [1-[2-(4-Ethoxyphenyl)ethyl]-1-(2,4-dimethylbenzyl)-3-(2,4-dimethylphenyl)urea]: the inhibition at 5.2 µg/mL was 34.9%. On the same count and under the same terms, the result for `CCCCCCCN(C(=O)Nc1c(Cl)cc(Cl)cc1Cl)c1ccco1` [1-(n-Heptyl)-1-(2-furyl)-3-(2,4,6-trichlorophenyl)urea] reads 96.1%; that for `CCCCc1ccc(CN(CCCC)C(=O)Nc2ccc(C)cc2C)cc1` [1-( -n-Butyl)-1-(4- -n-butylbenzyl)-3-(2,4-dimethylphenyl)urea], 94.4%. On to `CCCCN(Cc1ccccc1)C(=O)Nc1c(C)cc(C)cc1C` [1-Benzyl-1-( -n-butyl)-3-(2,4,6-trimethylphenyl)urea], for which the inhibition at 5.2 µg/mL is 75.8%. Take `CCCCN(Cc1ccccc1)C(=O)Nc1ccc(C)c(C)c1` [1-Benzyl-1-( -n-butyl)-3-(3,4-dimethylphenyl)urea]: the inhibition at 5.2 µg/mL came to 87.1%. The same measure, in the same setting: the result for `CCCCN(CCCc1ccccc1)C(=O)Nc1ccc(C)cc1C` [1-(n-Butyl)-1-(3-phenylpropyl)-3-(2,4-dimethylphenyl)urea] reads 97.4%; that for `CCCCN(CCc1ccccc1)C(=O)Nc1ccc(C)cc1C` [1-(n-Butyl)-1-(2-phenylethyl)-3-(2,4-dimethylphenyl)urea], 87.9%; that for `CCCCN(Cc1ccc(C(C)(C)C)cc1)C(=O)Nc1ccc(C)cc1C` [1-(n-Butyl)-1-(4-tert-butylbenzyl)-3-(2,4-dimethylphenyl)urea], 96.4%.

In the case of `CCCCN(Cc1ccccc1)C(=O)Nc1ccccc1[N+](=O)[O-]` [1-(n-Butyl)-1-benzyl-3-(2-nitrophenyl)urea], the inhibition at 5.2 µg/mL came to 37%.

In the case of `CCCCN(Cc1ccccc1)C(=O)Nc1cc(Cl)cc(Cl)c1` [1-Benzyl-1-( -n-butyl)-3-(3,5-dichlorophenyl)urea], the inhibition at 5.2 µg/mL was determined as 90.7%. For `CCCCN(Cc1ccccc1)C(=O)Nc1cccc(Cl)c1O` [1-(n-Butyl)-1-benzyl-3-(3-chloro-2-hydroxyphenyl)urea], the inhibition at 5.2 µg/mL came to 71%.

Consider `CCCCCOc1ccc(CN(Cc2ccc(CCCCC)cc2)C(=O)Nc2cccc(C(F)(F)F)c2)cc1` [1-(4-n-Pentylbenzyl)-1-(4-n-pentyloxybenzyl)-3-(3-trifluoromethylphenyl)urea], for which the inhibition at 5.2 µg/mL came out at 85%. On the same count and under the same terms, the figure for `O=C(Nc1ccc(Cl)cc1C(F)(F)F)N(Cc1ccccc1)C(Cc1ccccc1)c1ccc(OCc2ccccc2)cc1` (stereo not shown) [1-Benzyl-1-[2-phenyl-1-(4-benzyloxyphenyl)ethyl]-3-(2-trifluoromethyl-4-chlorophenyl)urea] is 92%; for `CCCCN(Cc1ccccc1)C(=O)Nc1cccc(C)c1C` [1-Benzyl-1-( -n-butyl)-3-(2,3-dimethylphenyl)urea] it is 85.8%; for `CCCCN(Cc1ccccc1)C(=O)Nc1ccc(C)cc1` [1-Benzyl-1-( -n-butyl)-3-(4-methylphenyl)urea] it is 78%. With `CCCCCCCCCCCCCCN(Cc1ccccc1)C(=O)Nc1ccc(C)cc1C` [1-(n-Tetradecyl)-1-benzyl-3-(2,4-dimethylphenyl)urea], the inhibition at 5.2 µg/mL worked out at 80.3%.

`COc1ccc(OC)c(CCN(Cc2cccc(Cl)c2)C(=O)Nc2ccc(C)cc2C)c1` [1-[2-(2,5-Dimethoxyphenyl)ethyl]-1-(3-chlorobenzyl)-3-(2,4-dimethylphenyl)urea]: the inhibition at 5.2 µg/mL was 97.1%.

As for `Cc1ccc(NC(=O)N(CCc2ccccc2Cl)Cc2ccc(C)c(C)c2)c(C)c1` [1-[2-(2-Chlorophenyl)ethyl]-1-(3,4-dimethylbenzyl)-3-(2,4-dimethylphenyl)urea], the inhibition at 5.2 µg/mL is 92.8%. With `CCCCOc1ccc(CN(Cc2ccccc2)C(=O)Nc2cccc(C(F)(F)F)c2)cc1` [1-(n-Benzyl)-1-(4-n-butoxybenzyl)-3-(3-trifluoromethylphenyl)urea], the inhibition at 5.2 µg/mL stood at 87%.

`O=C(Nc1cccc(C(F)(F)F)c1)N(Cc1ccccc1)C(Cc1ccccc1)c1ccc(OCc2ccccc2)cc1` (stereo not shown) [1-Benzyl-1-[2-phenyl-1-(4-benzyloxyphenyl)ethyl]-3-(3-trifluoromethylphenyl)urea]: the inhibition at 5.2 µg/mL came out at 74%.

For the compound `CCCCN(CCCc1ccc(OC)c(OC)c1)C(=O)Nc1ccc(C)cc1C` [1-(n-Butyl)-1-[3-(3,4-dimethoxyphenyl)propyl]-3-(2,4-dimethylphenyl)urea], the inhibition at 5.2 µg/mL was 36.4%. As to `CCCCN(Cc1ccc(Cl)cc1)C(=O)Nc1ccc(C)cc1C` [1-(n-Butyl)-1-(4-chlorobenzyl)-3-(2,4-dimethylphenyl)urea], the inhibition at 5.2 µg/mL worked out at 94.6%.

As to `CCCCN(Cc1ccccc1Cl)C(=O)Nc1ccc(C)cc1C` [1-( -n-Butyl)-1-(2-chlorobenzyl)-3-(2,4-dimethylphenyl)urea], the inhibition at 5.2 µg/mL was 95.5%. The same measure, in the same setting: the result for `CCCCN(Cc1ccc(-c2ccccc2)cc1)C(=O)Nc1ccc(C)cc1C` [1-(n-Butyl)-1-(4-phenylbenzyl)-3-(2,4-dimethylphenyl)urea] reads 97.1%. Regarding `CCCCCCCN(Cc1ccc(CCCC)cc1)C(=O)Nc1cc(Cl)c(Cl)cc1Cl` [1-(n-Heptyl)-1-(4-n-butylbenzyl)-3-(2,4,5-trichlorophenyl)urea], the inhibition at 5.2 µg/mL amounted to 46.5%. Same read-out and setting: the figure for `CCCCCCc1ccc(CN(CCCC)C(=O)Nc2ccc(C)cc2C)cc1` [1-(n-Butyl)-1-[4-(n-hexyl)benzyl]-3-(2,4-dimethylphenyl)urea] is 93.8%; for `Cc1cccc(CN(CCc2ccccc2Cl)C(=O)Nc2ccc(C)cc2C)c1` [1-[2-(2-Chlorophenyl)ethyl]-1-(3-methylbenzyl)-3-(2,4-dimethylphenyl)urea] it is 56.1%. As to `CCCCN(Cc1ccccc1)C(=S)Nc1ccccc1` [1-Benzyl-1-(n-butyl)-3-phenyl thiourea], the inhibition at 5.2 µg/mL stood at 82.4%.
